In assay [1] the test system is RAW cells. The assay can be described thus: Evaluation of cytosolic delivery where pH sensitive carrier and physiologically active substance were used independently. It counts as cell-based. To be noted: 30 μg/mL peptide-FITC or OVA-FITC, carrier added separately (160 nmol pH sensitive compound, 100 nmol amphipathic substance); FIG. 22. The method, then: On the previous day, RAW cells were spread on a matsunami glass bottom dish and cultured with 10% FBS-containing MEM. After rinsing with PBS, MEM was added, followed by a one hour incubation. 1900 μL of MEM containing fluorescence-labeled peptide-FITC or fluorescence-labeled OVA-FITC at a concentration of 30 μg/mL was prepared and substituted with the culture medium. Moreover, a solution of 100 μL of a pH sensitive carrier was added, followed by 16 to 20 hours of incubation in the culture medium in such a state that both were mixed. It was already confirmed that the fluorescence-labeled peptide-FITC and fluorescence-labeled OVA-FITC were each not supported with the pH sensitive carrier in a mixed state with a pH sensitive carrier-containing solution. After rinsing with PBS and three hours post-incubation with 2 mL of fresh MEM, the cells were rinsed with PBS, followed by substitution with phenol red-free DMEM and observation through a fluorescence microscope. The culture was carried out by use of an incubator (MCO20AIC) set at 5% CO2 and 37° C. and the cells were observed through a fluorescence microscope (Axiovert 200M—soft: Axio vision 3.0—light source: Fluo Arc).

Assay [2] has as its system RAW cells. The assay can be described thus: Cytosolic delivery of β-gal. The following applies: 16 to 20 hours incubation, three hours post-incubation; FIG. 21. It counts as cell-based. The method, then:
Using PBS passed through a 0.22 μm filter, there was prepared a 1.4 mg/mL of β-gal solution. […] On the day before charge, the RAW cells were spread on a matsunami glass bottom dish and cultured, and the cells were rinsed with PBS immediately before charge. The culture was carried out by use of an incubator (MCO 20 AIC) set at 5% CO2 and 37° C. and a 10% FBS-containing MEM medium. After substitution with 1900 μL of a fresh 10% FBS-containing MEM medium, 100 μL of the respective samples was charged, followed by 16 to 20 hours incubation. The cells were rinsed at least three times with PBS. Thereafter, 2 mL of a fresh 10% FBS-containing MEM medium was added, following by three hours post-incubation. The cells were rinsed with PBS, followed by staining the cells with use of a β-Galactosidase Staining Kit (purchased from Takara Bio Inc.), and observing the cells through a microscope (Axiovert 200M—soft: Axio vision 3.0). The staining was carried out in accordance with the recommendation of the kit.

Turning to “fluorescence-labeled OVA-FITC: FITC fluorescence-labeled OVA model protein”, in the assay on RAW cells [1], the “localisation of fluorescence-labeled peptide-FITC or OVA-FITC in cells (cytosolic delivery)” value was “remained in the endosome”.
For β-D-galactosidase [β-gal alone], the “staining of cells by β-gal enzymatic activity (cytosolic delivery)” value with RAW cells [2] is recorded as “not stained”.
